Among the data in patent publication US20150315188A1, “COMPOUNDS AND METHODS FOR TREATMENT OF HYPERTENSION” (MEDIVATION TECHNOLOGIES, INC., priority 2012, published 2015) are inhibition and epimerization values, retold here.

As a reminder, the inhibition is the change of the read-out against control, counted positive when it falls.

For data set [1], the target named is T1, Human adrenergic α2B receptor (Homo sapiens, UniProt P18089).
T1 sequence (P18089 1-450): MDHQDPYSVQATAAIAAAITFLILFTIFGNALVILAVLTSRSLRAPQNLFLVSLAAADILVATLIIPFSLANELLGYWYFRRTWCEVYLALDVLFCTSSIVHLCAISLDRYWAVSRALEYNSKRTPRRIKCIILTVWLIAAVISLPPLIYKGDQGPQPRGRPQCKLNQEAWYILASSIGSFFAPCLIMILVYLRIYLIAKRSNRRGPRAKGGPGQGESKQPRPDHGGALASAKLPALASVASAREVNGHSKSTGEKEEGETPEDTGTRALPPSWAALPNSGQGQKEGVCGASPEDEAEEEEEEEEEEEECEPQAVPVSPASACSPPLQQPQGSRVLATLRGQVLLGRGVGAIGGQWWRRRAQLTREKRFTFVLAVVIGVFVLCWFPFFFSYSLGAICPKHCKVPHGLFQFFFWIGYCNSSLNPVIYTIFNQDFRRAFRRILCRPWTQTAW
The data set is described as follows: Radioligand binding, adrenergic α2B (Protocol Group A). On the set-up: expressed in transfected cells; host or cells: CHO-K1. The conditions noted are these: 0.03 μM compound, [3H]Rauwolscine, read-out: percent inhibition of specific binding, Adrenergic α2B. As to the method:
To evaluate in radioligand binding assays the activity of compounds of the invention, human recombinant adrenergic α2B receptor expressed in Chinese hamster ovary (CHO) K1 cells (Uhlen, S. et al, Eur. J. Pharmacol. 343(1):93, 1998) in a modified Tris-HCl buffer (50 mM Tris-HCl, pH 7.4, 12.5 mM MgCl2, 1 mM EDTA, 0.2% BSA) was used. Compounds of the invention were incubated with 2.5 nM [3H]Rauwolscine for 60 min at 25° C. Non-specific binding was estimated in the presence of 10 μM Prazosin. Receptor proteins were filtered and washed, the filters were then counted to determine [3H]Rauwolscine specifically bound. Compounds were screened at 1 μM or lower, using 1% DMSO as vehicle. Compounds of the invention were tested in this biochemical assay and percent inhibition of specific binding was determined. Biochemical assay results are presented as the percent inhibition of specific binding in Table B1a.

For data set [2], the target named is T2, rat adrenergic α1B receptor (Rattus norvegicus, UniProt P15823).
T2 construct: rat adrenergic α1B receptor obtained from Wistar Rat liver; from tissue; host or cells: Wistar rat liver
T2 sequence (P15823 1-515): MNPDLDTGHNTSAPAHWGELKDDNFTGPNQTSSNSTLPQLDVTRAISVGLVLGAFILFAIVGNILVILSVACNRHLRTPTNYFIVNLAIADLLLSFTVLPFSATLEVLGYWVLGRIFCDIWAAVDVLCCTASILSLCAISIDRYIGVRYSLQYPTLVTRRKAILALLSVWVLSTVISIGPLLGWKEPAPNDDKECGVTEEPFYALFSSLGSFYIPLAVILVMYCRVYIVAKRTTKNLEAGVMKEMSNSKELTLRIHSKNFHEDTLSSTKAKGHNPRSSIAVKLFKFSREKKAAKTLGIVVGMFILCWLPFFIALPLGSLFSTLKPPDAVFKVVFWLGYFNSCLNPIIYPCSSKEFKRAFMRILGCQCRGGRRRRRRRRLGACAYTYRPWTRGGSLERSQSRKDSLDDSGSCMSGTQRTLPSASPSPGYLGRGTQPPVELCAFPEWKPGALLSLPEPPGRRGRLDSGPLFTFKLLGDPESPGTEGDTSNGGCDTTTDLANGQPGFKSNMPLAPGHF
The data set is described as follows: Radioligand binding, adrenergic α1B (Protocol Group A). The conditions noted are these: 0.1 μM compound, [3H]Prazosin, read-out: percent inhibition of specific binding, Adrenergic α1B. As for the experimental part:
To evaluate in radioligand binding assays the activity of compounds of the invention, rat adrenergic α1B receptor obtained from Wistar Rat liver (Garcia-S'ainz, J. et al, Biochem. Biophys. Res. Commun. 186:760, 1992; Michel, A. et al, Br. J. Pharmacol. 98:883, 1989) in a modified Tris-HCl buffer (50 mM Tris-HCl buffer, pH 7.4, 0.5 mM EDTA) was used. Compounds of the invention were incubated with 0.25 nM [^3H]Prazosin for 60 min at 25° C. Non-specific binding was estimated in the presence of 10 μM phentolamine. Receptor proteins were filtered and washed, the filters were then counted to determine [^3H]Prazosin specifically bound. Compounds were screened at 1 μM or lower, using 1% DMSO as vehicle. Compounds of the invention were tested in this biochemical assay and percent inhibition of specific binding was determined. Biochemical assay results are presented as the percent inhibition of specific binding in Table B1a.

Data set [3] can be described thus: Epimerization of chiral compounds in simulated gastric fluid (SGF). The following applies: 24 h. The data set is classed as physicochemical. As to the method: Epimerization Method for Studying Chiral Compounds in Simulated Gastric Fluid (SGF) and Stimulated Intestinal Fluid (SIF)
A measured quantity of sample was dissolved in SGF or SIF at the concentration of 1 mg/mL in a volumetric flask and appropriate number of aliquots of this solution were transferred to incubation vials as per the given time points. For the sample of zero hour, the appropriate volume of saturated Bicarbonate solution was added immediately to the sample, and was stirred for 5-10 mins. The compound was extracted in a suitable solvent (e.g. Ethyl acetate), decanting the organic layer. The organic solvent was evaporated, and the residue was dissolved in an appropriate solvent (Methanol/Ethanol), filtered through a 0.22 μm membrane filter and analyzed by chiral HPLC. The remaining aliquots were incubated at different temperatures i.e. 25° C. and 37° C. in a water bath as per the given time points. The respective samples were retrieved from the incubator/Water bath at different time intervals as per the given time points: 90 mins, 4 h, 6 h, 12 h and 24 h, and the same procedure for sample preparation was followed for the zero hour sample.
All the chromatograms were obtained at the specified wavelength, compiled and the curves between Time Vs % Area were plotted.

On to `Cc1ccc2c(c1)c1c(n2CC(OC(=O)N2CCCC2)c2ccncc2)CCN(C)C1` (single isomer, unassigned) [4b], for which the inhibition at 0.03 µM in data set [1] stood at 86%. For the same compound, in data set [2], the inhibition at 0.1 µM amounted to 35%.
Take `Cc1ccc2c(c1)c1c(n2CC(C)(O)c2ccc(F)nc2)CCN2CCCC12` (single isomer, unassigned) [6a]: in data set [1], the inhibition at 0.03 µM came out at 107%. Also, the inhibition at 0.1 µM in data set [2] came to 91%.
On to `Cc1ccc2c(c1)c1c(n2CC(O)c2ccncc2)CCN2CCCC12` (single isomer, unassigned) [Compound No. 178d], for which the epimerization entry is listed as “up to 41.29%” in data set [3] (25° C.) and 50.13% in data set [3] (37° C.).
With `Cc1cc(F)c2c(c1)c1c(n2CC(C)(O)c2cccnc2)CCN2CCCC12` (centres unmarked) [Compound No. 79a], the epimerization in data set [3] (25° C.) was 2%; in data set [3] (37° C.), 21.39%.
